{
  "source": "paper PMC5404542",
  "about": "“In Vitro and In Vivo Antifungal Profile of a Novel and Long-Acting Inhaled Azole, PC945, on Aspergillus fumigatus Infection” (Antimicrobial Agents and Chemotherapy, 2017)",
  "key": {"A. fumigatus ATCC 204305": {"tested_on": "A. fumigatus ATCC 204305", "test": "MIC with and without BSA supplementation, quality control strain", "conditions": "Aspergillus fumigatus", "protocol": "(§1) Conidia were added across the plate to a final concentration of 1 × 10^5 ml^−1. […] Determination of antifungal activity against 50 A. fumigatus clinical isolates from St. Louis Hospital (Paris, France) was performed with 96-well plates, using the modified EUCAST method in the presence of 0.5% BSA as described above. Antifungal susceptibility testing of 46 A. fumigatus isolates (obtained from the NW England Mycology Reference Centre) was performed by Evotec UK Ltd. (Manchester, United Kingdom) according to EUCAST guidelines."}, "[1]": {"tested_on": "Aspergillus terreus (AT49, AT7130)", "test": "MIC, EUCAST", "format": "cell-based"}, "[2]": {"tested_on": "BEAS2B cells infected with A. fumigatus", "test": "Persistence of action on bronchial epithelial cells (galactomannan in supernatant)", "format": "cell-based, Aspergillus fumigatus", "conditions": "for IC50: Aspergillus fumigatus, BEAS-2B", "experimental": "The persistence of action of test agents was evaluated on immortalized bronchial epithelial cells (BEAS2B cells). […] Test and reference articles or undiluted DMSO (as vehicle) (0.5 μl/well) was added to the appropriate wells of the washout plate to give a final concentration of 0.5% DMSO. The plate was incubated for exactly 1 h at 37°C and 5% CO2. After the incubation time had elapsed, all wells on the washout plate were aspirated, and growth medium (100 μl/well) was added across the plate. After 24 h of incubation at 37°C, test and reference articles or undiluted DMSO (as vehicle) (0.5 μl/well) was added to the appropriate wells of the nonwashout plate to give a final concentration of 0.5% DMSO. The plate was incubated for exactly 1 h at 37°C and 5% CO2, after which A. fumigatus conidia were added across both plates to a final concentration of 1 × 10^3/well."}, "[3]": {"tested_on": "Rhizomucor pusillus (ATCC 16458)", "test": "MIC, CLSI", "format": "cell-based", "conditions": "ATCC16458, 1 strain"}, "[4]": {"tested_on": "Chaetomium globosum (ATCC 44699)", "test": "MIC, CLSI", "format": "cell-based", "conditions": "ATCC44699, 1 strain"}, "[5]": {"tested_on": "Candida krusei (ATCC 6258)", "test": "MIC, CLSI", "format": "cell-based", "conditions": "Pichia kudriavzevii, ATCC6258"}, "[6]": {"tested_on": "Aspergillus flavus (AFL8, NRRC3357)", "test": "MIC, EUCAST", "format": "cell-based"}, "[7]": {"tested_on": "Cryptococcus neoformans (ATCC 24067)", "test": "MIC, CLSI", "format": "cell-based", "conditions": "Cryptococcus neoformans, ATCC24067"}, "[8]": {"tested_on": "96 clinically isolated A. fumigatus strains", "test": "MIC against 96 clinically isolated strains (EUCAST, visual)", "protocol": "as §1"}, "[9]": {"tested_on": "Penicillium citrinum (ATCC 9849)", "test": "MIC, CLSI", "format": "cell-based", "conditions": "ATCC9849, 1 strain"}, "[10]": {"test": "Precipitation in EUCAST medium", "format": "physicochemical"}, "[11]": {"tested_on": "Gibberella zeae (Fusarium graminearum) (ATCC 16106)", "test": "microbe, parasite or virus in culture", "format": "cell-based", "conditions": "ATCC16106"}, "[12]": {"tested_on": "AR Candida albicans (20183.073, 20186.025)", "test": "MIC, CLSI", "format": "cell-based", "conditions": "read-out: MIC (the MIC given is the MIC50)"}, "[13]": {"tested_on": "Penicillium chrysogenum (ATCC 9480)", "test": "MIC, CLSI", "format": "cell-based", "conditions": "ATCC9480, 1 strain"}, "[14]": {"tested_on": "Cladosporium argillaceum (ATCC 38013)", "test": "MIC, CLSI", "format": "cell-based", "conditions": "Rhizocladosporium argillaceum, ATCC38013, 1 strain"}, "[15]": {"tested_on": "Aspergillus carbonarius (ATCC 8740)", "test": "MIC, CLSI", "format": "cell-based", "conditions": "ATCC8740"}, "[16]": {"tested_on": "Lichtheimia corymbifera (ATCC 7909)", "test": "MIC, CLSI", "format": "cell-based", "conditions": "ATCC7909, 1 strain"}, "[17]": {"tested_on": "A. fumigatus hyphae (NCPF2010)", "test": "Persistence of action on A. fumigatus hyphae (resazurin-based microtiter assay)", "conditions": "Aspergillus fumigatus, NCPF2010, 16 h, read-out: Hyphae IC50, No washout", "protocol": "(§2) The persistence of action of test agents was calculated for A. fumigatus hyphae (NCPF2010). […] The plates were incubated for exactly 20 min at 35°C and 5% CO2. After the incubation time had elapsed, all wells on the designated washout plate were aspirated, and growth medium (100 μl/well) was added across the plate. […] Resazurin (0.04%; diluted in growth medium) was added to all wells of both nonwashout and washout plates (5 μl/well) to give a final concentration of 0.002% resazurin. The plates were incubated at 35°C and 5% CO2 for 16 h. […] The percent inhibition for each well was calculated, and the IC50 was calculated from the concentration-response curve generated for each test compound by use of a four-parameter logistic equation (Dotmatics, Bishops Stortford, United Kingdom)."}, "[18]": {"tested_on": "Aspergillus flavus (ATCC 204304)", "test": "MIC, CLSI", "format": "cell-based", "conditions": "ATCC204304"}, "[19]": {"tested_on": "Candida glabrata (ATCC 36583, R363)", "test": "MIC, CLSI", "format": "cell-based", "conditions": "Nakaseomyces glabratus, ATCC36583, read-out: MIC (the MIC given is the MIC50)"}, "A. fumigatus (NCPF2010)": {"tested_on": "A. fumigatus (NCPF2010)", "test": "A. fumigatus cell-based ergosterol assay", "design": "species or system Aspergillus fumigatus", "conditions": "Aspergillus fumigatus; NCPF2010, 24 h, normalized by crystal violet; read-out: IC50, inhibition of ergosterol production", "experimental": "After incubation for 24 h at 35°C, medium was removed from all wells and replaced with reaction buffer (Amplex red cholesterol assay kit; Thermo Fisher) and Amplex red solution. Plates were incubated for 30 min at 37°C, protected from light, after which fluorescence was quantified using a spectrophotometer. Medium was removed from all wells and replaced with crystal violet solution (1% [vol/vol]), and plates were incubated at room temperature on a shaker for 30 min. Plates were washed three times with phosphate-buffered saline (PBS), and sodium dodecyl sulfate solution (0.1% [vol/vol]) was added across the plate to lyse the cells. After incubation at room temperature for 1 h, the absorbance was measured by determining the OD590 by use of a spectrophotometer."}, "[20]": {"tested_on": "Trichophyton rubrum (ATCC 10218)", "test": "MIC, CLSI", "format": "cell-based", "conditions": "ATCC10218, 1 strain"}, "[21]": {"tested_on": "Aspergillus niger (ATCC 1015)", "test": "MIC, EUCAST", "format": "cell-based", "conditions": "ATCC1015"}, "[22]": {"tested_on": "Rhizopus oryzae (ATCC 11145)", "test": "MIC, CLSI", "format": "cell-based"}, "[23]": {"tested_on": "Candida albicans (20240.047, ATCC 10231)", "test": "MIC, CLSI", "format": "cell-based", "conditions": "ATCC10231, read-out: MIC (the MIC given is the MIC50)"}, "[24]": {"tested_on": "A. fumigatus hyphae (NCPF2010)", "protocol": "as §2"}, "[25]": {"tested_on": "Aureobasidium pullulans (ATCC 9348)", "test": "MIC, CLSI", "format": "cell-based", "conditions": "ATCC9348, 1 strain"}, "[26]": {"tested_on": "Mucor circinelloides (ATCC 8542)", "test": "MIC, CLSI", "format": "cell-based", "conditions": "ATCC8542, 1 strain"}},
  "note": "Values joined by “and” are separate entries in the source; they are usually repeats but may differ in a detail not shown here. Equal entries are not always repeated. Where two headings read alike, the source gives them in different places.",
  "data": [
    {"compound": "C[C@@H]1[C@H](O)[C@@H](C)/C=C/C=C/C=C/C=C/C=C/C=C/C=C/[C@H](O[C@@H]2O[C@H](C)[C@@H](O)[C@H](N)[C@@H]2O)C[C@@H]2O[C@](O)(C[C@@H](O)C[C@@H](O)[C@H](O)CC[C@@H](O)C[C@@H](O)CC(=O)O[C@H]1C)C[C@H](O)[C@H]2C(=O)O", "note": "[Amphotericin B, amphotericin B]", "values": [
      {"measurement": "MIC", "setting": "A. fumigatus ATCC 204305; ATCC204305, with BSA", "value": 2, "unit": "µg/mL"},
      {"measurement": "MIC", "setting": "A. fumigatus ATCC 204305; ATCC204305, without BSA", "value": 1, "unit": "µg/mL"}
    ]},
    {"compound": "CCC(C)n1ncn(-c2ccc(N3CCN(c4ccc(OCC5COC(Cn6cncn6)(c6ccc(Cl)cc6Cl)O5)cc4)CC3)cc2)c1=O", "note": "(stereo not shown) [Itraconazole, itraconazole]", "values": [
      {"measurement": "MIC", "setting": "A. fumigatus ATCC 204305; ATCC204305, with BSA", "value": 0.125, "unit": "µg/mL"},
      {"measurement": "MIC", "setting": "A. fumigatus ATCC 204305; ATCC204305, without BSA", "value": 0.25, "unit": "µg/mL"}
    ]},
    {"compound": "C[C@@H](c1ncncc1F)[C@](O)(Cn1cncn1)c1ccc(F)cc1F", "note": "[Voriconazole, voriconazole]", "values": [
      {"measurement": "MIC", "setting": "[1]", "value": 1, "unit": "µg/mL"},
      {"measurement": "BEAS2B cells IC50, Washout", "setting": "[2]; 1 h contact, 24-h washout prior to infection, GM readout", "value": "ineffective"},
      {"measurement": "IC50", "setting": "[2]; 1 h contact before infection, GM readout after 24 h, read-out: BEAS2B cells IC50, No washout", "value": 0.054, "unit": "µg/mL"},
      {"measurement": "IC50", "setting": "[2]; 1 h contact, 24-h washout prior to infection, GM readout, read-out: BEAS2B cells IC50, Washout", "value": "> 1", "unit": "µg/mL"},
      {"measurement": "MIC", "setting": "[3]", "value": "> 8", "unit": "µg/mL"},
      {"measurement": "MIC", "setting": "[4]", "value": 1, "unit": "µg/mL"},
      {"measurement": "MIC", "setting": "[5]", "value": 0.25, "unit": "µg/mL"},
      {"measurement": "MIC", "setting": "A. fumigatus ATCC 204305; ATCC204305, with BSA", "value": "1 to 2", "unit": "µg/mL"},
      {"measurement": "MIC", "setting": "A. fumigatus ATCC 204305; ATCC204305, without BSA", "value": 2, "unit": "µg/mL"},
      {"measurement": "MIC", "setting": "[6]", "value": 0.63, "unit": "µg/mL"},
      {"measurement": "MIC", "setting": "[7]", "value": 0.016, "unit": "µg/mL"},
      {"measurement": "MIC, Range", "setting": "[8]; 96 clinical isolates, determined visually", "value": "0.064 to 4", "unit": "µg/mL"},
      {"measurement": "MIC50", "setting": "[8]; Aspergillus fumigatus", "value": 0.5, "unit": "µg/mL"},
      {"measurement": "MIC90", "setting": "[8]; Aspergillus fumigatus", "value": 1, "unit": "µg/mL"},
      {"measurement": "MIC", "setting": "[8]; Aspergillus fumigatus, read-out: MIC, Geometric mean", "value": 0.42, "unit": "µg/mL"},
      {"measurement": "MIC", "setting": "[8]; Aspergillus fumigatus, read-out: MIC, Mode", "value": 0.5, "unit": "µg/mL"},
      {"measurement": "MIC", "setting": "[9]", "value": "> 8", "unit": "µg/mL"},
      {"measurement": "concentration at which compound precipitated in EUCAST medium", "setting": "[10]", "value": "did not"},
      {"measurement": "MIC", "setting": "[11]", "value": "> 8", "unit": "µg/mL"},
      {"measurement": "MIC50", "setting": "[12]", "value": 10, "unit": "µg/mL"},
      {"measurement": "MIC", "setting": "[13]", "value": 2, "unit": "µg/mL"},
      {"measurement": "MIC", "setting": "[14]", "value": 0.5, "unit": "µg/mL"},
      {"measurement": "MIC", "setting": "[15]", "value": 0.5, "unit": "µg/mL"},
      {"measurement": "MIC", "setting": "[16]", "value": "> 8", "unit": "µg/mL"},
      {"measurement": "IC50", "setting": "[17]", "value": 0.011, "unit": "µg/mL"},
      {"measurement": "MIC", "setting": "[18]", "value": 2, "unit": "µg/mL"},
      {"measurement": "MIC50", "setting": "[19]", "value": 8.13, "unit": "µg/mL"},
      {"measurement": "IC50", "setting": "A. fumigatus (NCPF2010)", "value": "0.067 µg/mL and 190 nM"},
      {"measurement": "MIC", "setting": "[20]", "value": 0.063, "unit": "µg/mL"},
      {"measurement": "MIC", "setting": "[21]", "value": 1, "unit": "µg/mL"},
      {"measurement": "MIC", "setting": "[22]; 1 strain", "value": ">8", "unit": "µg/mL"},
      {"measurement": "MIC", "setting": "[22]; Rhizopus arrhizus, ATCC11145, 1 strain, read-out: MIC", "value": "> 8", "unit": "µg/mL"},
      {"measurement": "MIC50", "setting": "[23]", "value": 0.14, "unit": "µg/mL"},
      {"measurement": "IC50", "setting": "[24]", "value": "> 1", "unit": "µg/mL"},
      {"measurement": "MIC", "setting": "[25]", "value": "> 8", "unit": "µg/mL"},
      {"measurement": "MIC", "setting": "[26]", "value": "> 8", "unit": "µg/mL"}
    ]}
  ]
}
